Values of other authors, collected in patent US20240374634A1, “NUTRACEUTICAL OPHTHALMIC COMPOSITION FOR THE TREATMENT OF RETINAL PATHOLOGIES HAVING A NEOVASCULAR COMPONENT” (Laboratoires THEA, priority 2018, published 2024).

Details: 300 patients over three years, after a significant increase in DHA in cells

## CC/C=C\C/C=C\C/C=C\C/C=C\C/C=C\C/C=C\CCC(=O)O [DHA, Docosahexaenoic acid (DHA)]
  reduction in the risks of developing neovascular AMD: 68%
